Data taken from patent US20160237059A1, “HETEROCYCLIC SUBSTITUTED TRIFLUOROMETHYL PYRIMIDINONES AND THEIR USE” (BAYER PHARMA AKTIENGESELLSCHAFT, priority 2013, published 2016).
Counter-ions that a name gives are not always drawn.

What was measured:
human CCR2 = molecular target: T1, human CCR2 (Homo sapiens, UniProt P41597); experiment: Functional Ca2+ release test (B-1); assay type: cell-based; conditions: Chem-1 cell line transfected with human CCR2; 50% inhibition of the MCP-1 effect, MCP-1 at EC50 (about 5 nM); in some cases means of several determinations
T1 construct: host or cells: Chem-1 cell line
T1 sequence (P41597 1-360 isoform P41597-2): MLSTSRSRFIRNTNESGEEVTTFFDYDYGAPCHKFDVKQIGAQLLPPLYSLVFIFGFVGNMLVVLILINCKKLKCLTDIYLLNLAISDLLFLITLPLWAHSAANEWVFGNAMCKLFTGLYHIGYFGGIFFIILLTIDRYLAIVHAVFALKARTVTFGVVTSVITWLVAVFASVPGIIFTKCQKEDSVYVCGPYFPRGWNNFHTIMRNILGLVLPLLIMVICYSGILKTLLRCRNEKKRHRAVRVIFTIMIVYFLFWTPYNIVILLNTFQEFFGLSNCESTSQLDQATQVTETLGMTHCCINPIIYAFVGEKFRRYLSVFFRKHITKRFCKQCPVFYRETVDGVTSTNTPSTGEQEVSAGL
Procedure, shortened: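 Inhibition of MCP-1-evoked Ca2+ release was measured over 120 s by fluorescence imaging in Fluo-4-loaded, human CCR2-transfected Chem-1 cells. Compounds, tested in 10-point 1:3.16 series, were added 10 min before agonist at its EC50 (typically about 5 nM). IC50 values were obtained by 4-parameter logistic fitting.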

murine CCR2 = molecular target: T2, murine CCR2 (Mus musculus, UniProt P51683); experiment: Functional β-arrestin recruiting test with human MCP-1 (B-2a); assay type: cell-based; conditions: U2OS β-arrestin cell line transfected with murine CCR2; agonist human MCP-1 at EC50 (about 3 nM); in some cases means of several determinations
T2 construct: host or cells: U2OS β-arrestin cell line
T2 sequence (P51683 whole entry): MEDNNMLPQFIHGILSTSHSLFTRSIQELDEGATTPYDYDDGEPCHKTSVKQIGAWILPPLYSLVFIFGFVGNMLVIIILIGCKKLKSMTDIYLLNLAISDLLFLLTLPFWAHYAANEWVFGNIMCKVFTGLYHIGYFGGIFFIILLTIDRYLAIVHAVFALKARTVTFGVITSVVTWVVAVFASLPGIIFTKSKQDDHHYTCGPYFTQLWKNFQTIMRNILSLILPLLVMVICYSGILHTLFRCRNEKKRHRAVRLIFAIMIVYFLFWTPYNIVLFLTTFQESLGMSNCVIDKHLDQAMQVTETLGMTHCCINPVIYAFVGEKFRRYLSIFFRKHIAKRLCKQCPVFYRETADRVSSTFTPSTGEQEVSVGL
Description: The antagonistic action of test substances on CCR2 was determined in a β-arrestin test. The PathHunter β-arrestin GPCR test system (DiscoveRx Corporation, Ltd.) is a cell-based functional method for detecting binding of β-arrestin to an activated receptor. The molecular basis is a […] complementation measured by the enzymatic conversion of a chemiluminescent substrate. The test cell used was a U2OS β-arrestin cell line transfected with murine CCR2 (93-0543C3, DiscoveRx Corporation, Ltd.).
The test substances were dissolved in dimethyl sulphoxide (DMSO) at a concentration of 10 mM and serially diluted with DMSO in steps of 1:3.16 for a 10-point dose/activity analysis. According to the desired test concentrations, the substances were pre-diluted in Tyrode with 2 mM CaCl2 and 0.05% BSA.
The cells, cultivated in MEM Eagle (supplemented with 10% FCS, 50 U/ml of penicillin, 50 μg/ml of streptomycin, 250 μg/ml of hygromycin and 500 μg/ml of geniticin), were sown at 2000 cells/25 μl in 384 well, μCLEAR/black cell culture plates from Greiner (#781092) and incubated at 37° C. for 24 h. The sowing medium consisted of Opti-MEM (supplemented with 1% FCS, 50 U/ml of penicillin and 50 μg/ml of streptomycin). The cells were pre-incubated for 10 min with 10 μl of the test substances diluted in buffer, and 10 μl of agonist solution [human MCP-1 (PeproTech, #300-04) in Tyrode with 0.05% BSA) were then added. The human MCP-1 was employed at the concentration which corresponds to the EC50 which had been determined in a preliminary test (usually about 3 nM). After 90 min of incubation at 37° C., the solution was removed, and recruitment of β-arrestin to CCR2 was detected with the aid of the PathHunter detection reagent (93-001, DiscoveRx Corporation, Ltd.) according to the instructions of the manufacturer. Luminescence was measured after an incubation time of 60 min using a proprietary luminescence imaging measuring instrument. The molar concentration of the test substance which caused 50% inhibition of the MCP-1 effect (IC50) was determined using a 4-parameter logistic function (Hill function).

| SMILES | IC50 (human CCR2) | IC50 (murine CCR2) |
| --- | --- | --- |
| COc1cc(-c2nc(C(F)(F)F)c(Cc3ccc(Cl)c(Cl)c3)c(=O)[nH]2)ccn1 [Example 29, 5-(3,4-dichlorobenzyl)-2-(2-methoxypyridin-4-yl)-6-(trifluoromethyl)pyrimidin-4(3H)-one] | 92 nM | 2600 nM |
| O=c1[nH]c(-c2ncc(C(F)(F)F)cc2Cl)nc(C(F)(F)F)c1Cc1ccc(Cl)c(Cl)c1 [Example 21, 2-[3-chloro-5-(trifluoromethyl)pyridin-2-yl]-5-(3,4-dichlorobenzyl)-6-(trifluoromethyl)pyrimidin-4(3H)-one] | 28 nM | 230 nM |
| COc1cnccc1-c1nc(C(F)(F)F)c(Cc2ccc(Cl)c(Cl)c2)c(=O)[nH]1 [Example 26] | 3.2 nM | 190 nM |
| CCOC(=O)C1CCN(c2nc(C(F)(F)F)c(Cc3ccc(Cl)c(Cl)c3)c(=O)[nH]2)CC1 [Example 176, ethyl 1-[5-(3,4-dichlorobenzyl)-6-oxo-4-(trifluoromethyl)-1,6-dihydropyrimidin-2-yl]piperidine-4-carboxylate] | 45 nM | 460 nM |
| Cn1cnc(Nc2nc(C(F)(F)F)c(Oc3ccc(Cl)c(Cl)c3)c(=O)[nH]2)n1 [Example 106, 5-(3,4-dichlorophenoxy)-2-[(1-methyl-1H-1,2,4-triazol-3-yl)amino]-6-(trifluoromethyl)pyrimidin-4(3H)-one] | 180 nM | 1400 nM |
| Nc1[nH]ncc1-c1nc(C(F)(F)F)c(Oc2ccc(Cl)c(Cl)c2)c(=O)[nH]1 [Example 62, 2-(5-amino-1H-pyrazol-4-yl)-5-(3,4-dichlorophenoxy)-6-(trifluoromethyl)pyrimidin-4(3H)-one trifluoroacetate] | 110 nM | 140 nM |
| O=c1[nH]c(Cc2ccsc2)nc(C(F)(F)F)c1Cc1ccc(Cl)c(Cl)c1 [Example 97, 5-(3,4-dichlorobenzyl)-2-(3-thienylmethyl)-6-(trifluoromethyl)pyrimidin-4(3H)-one] | 100 nM | 490 nM |
| COCc1nc(-c2nc(C(F)(F)F)c(Oc3ccc(Cl)c(Cl)c3)c(=O)[nH]2)no1 [Example 81, 5-(3,4-dichlorophenoxy)-2-[5-(methoxymethyl)-1,2,4-oxadiazol-3-yl]-6-(trifluoromethyl)pyrimidin-4(3H)-one x N,N-diisopropylethylamine] | 19 nM | 110 nM |
| O=c1[nH]c(-c2cn[nH]c2)nc(C(F)(F)F)c1Cc1ccc(Cl)c(Cl)c1 [Example 63, 5-(3,4-dichlorobenzyl)-2-(1H-pyrazol-4-yl)-6-(trifluoromethyl)pyrimidin-4(3H)-one] | 5.5 nM | 100 nM |
| Cn1nc(Cc2nc(C(F)(F)F)c(Cc3ccc(Cl)c(Cl)c3)c(=O)[nH]2)[nH]c1=O [Example 263, 5-(3,4-Dichlorobenzyl)-2-[(1-methyl-5-oxo-4,5-dihydro-1H-1,2,4-triazol-3-yl)methyl]-6-(trifluoromethyl)pyrimidin-4(3H)-one] | 180 nM | 680 nM |
| O=c1[nH]c(-c2cccc(O)n2)nc(C(F)(F)F)c1Oc1ccc(Cl)c(Cl)c1 [Example 31, 5-(3,4-dichlorophenoxy)-2-(6-hydroxypyridin-2-yl)-6-(trifluoromethyl)pyrimidin-4(3H)-one] | 150 nM | 1400 nM |
| O=c1[nH]c(-c2noc(C(F)(F)F)n2)nc(C(F)(F)F)c1Oc1ccc(Cl)c(Cl)c1 [Example 84, 5-(3,4-Dichlorophenoxy)-6-(trifluoromethyl)-2-[5-(trifluoromethyl)-1,2,4-oxadiazol-3-yl]pyrimidin-4(3H)-one] | 9.2 nM | 86 nM |
| O=c1[nH]c(-c2cccc(Cl)n2)nc(C(F)(F)F)c1Cc1ccc(Cl)c(Cl)c1 [Example 20, 2-(6-chloropyridin-2-yl)-5-(3,4-dichlorobenzyl)-6-(trifluoromethyl)pyrimidin-4(3H)-one] | 12 nM | 380 nM |
| O=c1[nH]nc(Cc2nc(C(F)(F)F)c(Cc3ccc(Cl)c(Cl)c3)c(=O)[nH]2)o1 [Example 89, 5-(3,4-Dichlorobenzyl)-2-[(5-oxo-4,5-dihydro-1,3,4-oxadiazol-2-yl)methyl]-6-(trifluoromethyl)pyrimidin-4(3H)-one] | 11 nM | 370 nM |
| O=c1[nH]c(CC2CCOCC2)nc(C(F)(F)F)c1Cc1ccc(Cl)c(Cl)c1 [Example 171] | 400 nM | 1000 nM |
| O=c1[nH]c(CN2CCOCC2)nc(C(F)(F)F)c1Cc1ccc(Cl)c(Cl)c1 [Example 261, 5-(3,4-Dichlorobenzyl)-2-(morpholin-4-ylmethyl)-6-(trifluoromethyl)pyrimidin-4(3H)-one] | 360 nM | 630 nM |
| O=c1[nH]c(-c2ncccc2Cl)nc(C(F)(F)F)c1Oc1ccc(F)c(F)c1 [Example 13, 2-(3-chloropyridin-2-yl)-5-(3,4-difluorophenoxy)-6-(trifluoromethyl)pyrimidin-4(3H)-one] | 56 nM | 120 nM |
| O=c1[nH]c(-c2ccc(Cl)cn2)nc(C(F)(F)F)c1Oc1ccc(Cl)c(Cl)c1 [Example 8, 2-(5-chloropyridin-2-yl)-5-(3,4-dichlorophenoxy)-6-(trifluoromethyl)pyrimidin-4(3H)-one] | 3.9 nM | 180 nM |
| O=C1NCCN1c1nc(C(F)(F)F)c(Cc2ccc(Cl)c(Cl)c2)c(=O)[nH]1 [Example 111, 5-(3,4-Dichlorobenzyl)-2-(2-oxoimidazolidin-1-yl)-6-(trifluoromethyl)pyrimidin-4(3H)-one] | 59 nM | 360 nM |
| O=c1[nH]c(-c2ccncc2)nc(C(F)(F)F)c1Cc1ccc(Cl)c(Cl)c1 [Example 28, 5-(3,4-dichlorobenzyl)-2-(pyridin-4-yl)-6-(trifluoromethyl)pyrimidin-4(3H)-one] | 49 nM | 1000 nM |
| Cc1nc(Cc2nc(C(F)(F)F)c(Cc3ccc(Cl)c(Cl)c3)c(=O)[nH]2)cs1 [Example 174, 5-(3,4-dichlorobenzyl)-2-[(2-methyl-1,3-thiazol-4-yl)methyl]-6-(trifluoromethyl)pyrimidin-4(3H)-one] | 150 nM | 1100 nM |
| O=c1[nH]c(-c2ccc(Cl)cn2)nc(C(F)(F)F)c1Cc1ccc(Cl)c(Cl)c1 [Example 22, 2-(5-chloropyridin-2-yl)-5-(3,4-dichlorobenzyl)-6-(trifluoromethyl)pyrimidin-4(3H)-one] | 7 nM | 400 nM |
| Cc1n[nH]c(Cc2nc(C(F)(F)F)c(Cc3ccc(Cl)c(Cl)c3)c(=O)[nH]2)n1 [Example 99, 5-(3,4-Dichlorobenzyl)-2-[(3-methyl-1H-1,2,4-triazol-5-yl)methyl]-6-(trifluoromethyl)pyrimidin-4(3H)-one] | 72 nM | 630 nM |
| Cn1cc(Nc2nc(C(F)(F)F)c(Oc3ccc(Cl)c(Cl)c3)c(=O)[nH]2)cn1 [Example 110, 5-(3,4-dichlorophenoxy)-2-[(1-methyl-1H-pyrazol-4-yl)amino]-6-(trifluoromethyl)pyrimidin-4(3H)-one] | 41 nM | 730 nM |
| N=c1[nH]c(-c2nc(C(F)(F)F)c(Oc3ccc(Cl)c(Cl)c3)c(=O)[nH]2)no1 [Example 85, 5-(3,4-Dichlorophenoxy)-2-(5-imino-4,5-dihydro-1,2,4-oxadiazol-3-yl)-6-(trifluoromethyl)pyrimidin-4(3H)-one] | 31 nM | 96 nM |
| O=c1[nH]c(-c2ncccc2Cl)nc(C(F)(F)F)c1Oc1cccc(Cl)c1 [Example 12, 5-(3-chlorophenoxy)-2-(3-chloropyridin-2-yl)-6-(trifluoromethyl)pyrimidin-4(3H)-one] | 75 nM | 100 nM |
